Test results: ChEMBL document CHEMBL3046513, “Synthesis, characterization, and biological evaluation of some N-aryl hydrazones and their 2,3-disubstituted-4-thiazolidinone derivatives” (Med Chem Res, 2013)
Values after ≈ are worked out from the molar mass of the structure shown. Active and inactive are the calls of the source. No cut-off for these calls is given here.

What was measured:
Bacillus cereus = experiment: Antibacterial activity against Bacillus cereus assessed as growth inhibition by serial plate dilution method; type: functional
Mus musculus [1] = experiment: Analgesic activity in Mus musculus […] albino (mouse) assessed as time taken to tail withdrawl at 100 mg/kg, po administered through intragastric tube after 120 min by tail flick test (reference value: 1.363 +/- 0.1297 secs); type: functional
Rattus norvegicus [2] = experiment: Anti-inflammatory activity in Rattus norvegicus (rat) assessed as decrease in carrageenan-induced paw edema at 100 mg/kg, po administered 30 min prior to carrageenan challenge measured after 60 min (reference value: 2.175 +/- 0.1797 mm); type: functional
Mus musculus [3] = experiment: Analgesic activity in Mus musculus […] albino (mouse) assessed as time taken to tail withdrawl at 100 mg/kg, po administered through intragastric tube after 60 min by tail flick test (reference value: 1.363 +/- 0.1297 secs); type: functional
Staphylococcus aureus = experiment: Antibacterial activity against Staphylococcus aureus ATCC 25923 assessed as growth inhibition by serial plate dilution method; type: functional
Mus musculus [4] = experiment: Analgesic activity in Mus musculus […] albino (mouse) assessed as time taken to tail withdrawl at 100 mg/kg, po administered through intragastric tube after 180 min by tail flick test (reference value: 1.363 +/- 0.1297 secs); type: functional
Rattus norvegicus [5] = experiment: Anti-inflammatory activity in Rattus norvegicus (rat) assessed as decrease in carrageenan-induced paw edema at 100 mg/kg, po administered 30 min prior to carrageenan challenge measured after 180 min (reference value: 2.275 +/- 0.1181 mm); type: functional
[6] = tested on: Radical scavenging activity; experiment: Antioxidant activity assessed as inhibition of DPPH radical generation at 200 to 800 ug/mL after 20 min by spectrophotometric analysis; type: functional
Candida albicans [7] = experiment: Antifungal activity against Candida albicans assessed as growth inhibition by serial plate dilution method; type: functional
Pseudomonas aeruginosa = experiment: Antibacterial activity against Pseudomonas aeruginosa ATCC 27853 assessed as growth inhibition by serial plate dilution method; type: functional
Rattus norvegicus [8] = experiment: Anti-inflammatory activity in Rattus norvegicus (rat) assessed as decrease in carrageenan-induced paw edema at 100 mg/kg, po administered 30 min prior to carrageenan challenge measured after 120 min (reference value: 2.375 +/- 0.1436 mm); type: functional
Escherichia coli = experiment: Antibacterial activity against Escherichia coli ATCC 25922 assessed as growth inhibition by serial plate dilution method; type: functional
Mus musculus [9] = experiment: Acute toxicity in Mus musculus Swiss albino (mouse) assessed as mortality at 500 to 2500 mg/kg, po after 4 to 24 hr; type: organism-based; parameters: route oral; conditions: in vivo
Mus musculus [10] = experiment: Acute toxicity in Mus musculus Swiss albino (mouse) assessed as behavioral changes at 500 to 2500 mg/kg, po after 4 to 24 hr; type: organism-based; parameters: route oral; conditions: in vivo
[11] = tested on: Radical scavenging activity; experiment: Antioxidant activity assessed as inhibition of DPPH radical generation at 200 ug/mL after 20 min by spectrophotometric analysis relative to control; type: functional
Candida albicans [12] = experiment: Ratio of fluconazole MIC to compound MIC for Candida albicans; type: functional
[13] = tested on: Radical scavenging activity; experiment: Antioxidant activity assessed as inhibition of DPPH radical generation at 800 ug/mL after 20 min by spectrophotometric analysis relative to control; type: functional
[14] = tested on: Radical scavenging activity; experiment: Antioxidant activity assessed as inhibition of DPPH radical generation at 400 ug/mL after 20 min by spectrophotometric analysis relative to control; type: functional

SMILES | MIC (Bacillus cereus) | MIC (Staphylococcus aureus) | MIC (Candida albicans [7]) | MIC (Pseudomonas aeruginosa) | MIC (Escherichia coli) | Time (Mus musculus [1]) | Activity (Rattus norvegicus [2]) | Time (Mus musculus [3]) | Time (Mus musculus [4]) | Activity (Rattus norvegicus [5]) | inhibition [6] | Activity (Rattus norvegicus [8]) | Activity (Mus musculus [9]) | Activity (Mus musculus [10]) | inhibition [11] | Ratio (Candida albicans [12]) | inhibition [13] | inhibition [14]
COc1ccc(Br)c(C(=O)NN2C(=O)CSC2c2cccc(Cl)c2)c1 (configuration not stated) | 6.25 µg/mL (≈ 14.1 µM) | 12.5 µg/mL (≈ 28.3 µM) | 1.56 µg/mL (≈ 3.54 µM) | 6.25 µg/mL (≈ 14.1 µM) | 12.5 µg/mL (≈ 28.3 µM) | 2.8 s | 1.575 mm | 2.825 s | 2.438 s | 1.6 mm | – | 1.65 mm | Non-toxic | Non-toxic | 57.6% | 5 | 59.5% | 58.5%
COc1ccc(Br)c(C(=O)NN2C(=O)CSC2c2ccc(C)cc2)c1 (configuration not stated) | 12.5 µg/mL (≈ 29.7 µM) | 6.25 µg/mL (≈ 14.8 µM) | 6.25 µg/mL (≈ 14.8 µM) | 12.5 µg/mL (≈ 29.7 µM) | 12.5 µg/mL (≈ 29.7 µM) | 2.088 s | 1.525 mm | 2.038 s | 2.225 s | 1.95 mm | inactive | 1.9 mm | – | – | – | – | – | –
COc1ccc(Br)c(C(=O)N/N=C\c2ccccc2)c1 | 12.5 µg/mL (≈ 37.5 µM) | 12.5 µg/mL (≈ 37.5 µM) | 1.56 µg/mL (≈ 4.69 µM) | 12.5 µg/mL (≈ 37.5 µM) | 12.5 µg/mL (≈ 37.5 µM) | – | – | – | – | – | – | – | Non-toxic | Non-toxic | – | 5 | – | –
COc1ccc(Br)c(C(=O)NN2C(=O)CSC2c2ccccc2)c1 (configuration not stated) | 25 µg/mL (≈ 61.4 µM) | 25 µg/mL (≈ 61.4 µM) | 6.25 µg/mL (≈ 15.3 µM) | 12.5 µg/mL (≈ 30.7 µM) | 12.5 µg/mL (≈ 30.7 µM) | 3.563 s | 1.575 mm | 3.675 s | 2.425 s | 1.75 mm | – | 1.65 mm | – | – | 4.3% | – | 41.6% | 18.1%

More lines, in order of falling MIC (Bacillus cereus), values ahead:

MIC (Bacillus cereus) | MIC (Staphylococcus aureus) | MIC (Candida albicans [7]) | MIC (Pseudomonas aeruginosa) | MIC (Escherichia coli) | SMILES | Time (Mus musculus [1]) | Activity (Rattus norvegicus [2]) | Time (Mus musculus [3]) | Time (Mus musculus [4]) | Activity (Rattus norvegicus [5]) | inhibition [6] | Activity (Rattus norvegicus [8]) | Activity (Mus musculus [9]) | Activity (Mus musculus [10]) | inhibition [11] | Ratio (Candida albicans [12]) | inhibition [13] | inhibition [14]
12.5 µg/mL (≈ 29.5 µM) | 6.25 µg/mL (≈ 14.8 µM) | 3.12 µg/mL (≈ 7.38 µM) | 6.25 µg/mL (≈ 14.8 µM) | 12.5 µg/mL (≈ 29.5 µM) | COc1ccc(Br)c(C(=O)NN2C(=O)CSC2c2ccccc2O)c1 (configuration not stated) | 3.623 s | 1.88 mm | 3.546 s | 2.235 s | 2.081 mm | inactive | 1.98 mm | – | – | – | – | – | –
6.25 µg/mL (≈ 13.8 µM) | 6.25 µg/mL (≈ 13.8 µM) | 12.5 µg/mL (≈ 27.6 µM) | 6.25 µg/mL (≈ 13.8 µM) | 12.5 µg/mL (≈ 27.6 µM) | COc1ccc(Br)c(C(=O)NN2C(=O)CSC2c2ccc(O)c(OC)c2)c1 (configuration not stated) | 3.334 s | 1.528 mm | 3.468 s | 2.841 s | 1.78 mm | inactive | 1.77 mm | – | – | – | – | – | –
6.25 µg/mL (≈ 14.3 µM) | 6.25 µg/mL (≈ 14.3 µM) | 6.25 µg/mL (≈ 14.3 µM) | 6.25 µg/mL (≈ 14.3 µM) | 12.5 µg/mL (≈ 28.6 µM) | COc1ccc(Br)c(C(=O)NN2C(=O)CSC2c2ccccc2OC)c1 (configuration not stated) | 2.075 s | 1.825 mm | 2.175 s | 2.238 s | 2.075 mm | inactive | 1.95 mm | – | – | – | – | – | –
